Reference: patent US9618453B2, “Aggregation induced emission of fluorescent bioprobes and methods of using the same” (THE HONG KONG UNIVERSITY OF SCIENCE AND TECHNOLOGY, priority 2011, dated 2017)

Columns and labels:
[1] = biological target: bovine serum albumin (BSA) (Bos taurus, UniProt P02769); assay: Fluorescence labeling of BSA with TPE-SO3 in phosphate buffer; conditions: BSA 5 μM, pH 7.0
Procedure: Fluorescence labeling was carried out by sequentially adding solutions of TPE-SO3 to 100 μL aliquots of BSA solutions. The mixtures were stirred for half an hour prior to taking their spectra.
The PL peak intensities of the BSA prepared with the lowest concentrations of TPE-SO3 were used as the reference and plots of the normalized fluorescence versus the concentrations of TPE-SO3 were obtained (FIG. 22). […] TPE-SO3 is represented by the following chemical formula: […]

[2] = Photoluminescence in THF/water mixtures with different water fractions (aggregation induced emission); assay type: physicochemical; conditions: water/THF solution, water fraction 90 vol %
Description: The AIE of TPENCS is illustrated in FIG. 1. […] With water content ranging from 0-70%, the fluorescence intensity remained at a very low level. When the water concentration was in the 80-90 vol % range, a rapid and dramatic increase of the fluorescence intensity with increasing water content was observed (FIG. 1b). The PL intensity of TPENCS in the water/THF solution with a water fraction of 90 vol % was approximately 50-fold higher than that in the mixture with 70% water. The quantum efficiency of TPENCS was 52.2% in the solid state.
Similar to other AIE active molecules, TPEMBR only gave weak emission in good solvents such as THF. […] To quantify the effect of water content on the degree of fluorescent emission enhancement, the photoluminescence intensity of TPEMBR was measured where the fraction of water was increased from 0 to 90 vol %. With the water content in the range of 0-70%, the fluorescent intensity remained at a very low level. With the water fraction reaching the 80-90 vol % range, a rapid and dramatic increase of the fluorescent intensity was observed (FIG. 9b). The photoluminescence intensity of TPEMBR in the water/THF solution with a water fraction of 90 vol % was approximately 50-fold stronger than that in the mixture with 70% water. In the solid state, the quantum efficiency of TPEMBR was determined to be 31.7%.
The AIE of SITC is illustrated in FIGS. 17a and 17b. The wavelength at maximum absorption of SITC was at 363 nm and the emission maximum was at 490 nm. […] To quantify the effect of water content on the elevation of the fluorescent emission, the photoluminescence intensity of SITC was measured with concentration of water increasing from 0 to 90 vol %. With water content ranging from 0-70%, the fluorescent intensity remained at a very low level. When the water concentration was in the 80-95 vol % range, a rapid and dramatic increase of the fluorescent intensity with increasing water content was observed (FIG. 17b). The photoluminescence intensity of SITC in the water/THF solution with a water fraction of 95 vol % was approximately 50-fold higher than that in the mixture with 70% water. The quantum efficiency of SITC was 45.8% in the solid state.
(§1) Tetrahydrofuran (THF; Labscan) was distilled under nitrogen from sodium benzophenone ketyl immediately prior to use. Acrylamide was purchased from Bio-Rad. Aminoallyl-dUTP (aa-dUTP), dNTPs, DNase I (RNase-free), DNA Polymerase I, Klenow Fragment exo-, Random Hexamer Primer, Long PCR Enzyme Mix and GeneJET™ PCR Purification Kit, GeneRuler™ 100 bp Plus DNA Ladder (ready-to-use, 100-3000 bp), 6×DNA Loading Dye were purchased from Fermentas (Thermo Scientific). Deep VentR™ exo-DNA Polymerase was purchased from New England Biolabs (NEB). Synthesized oligonucleotides (primers) were purchased from Tech Drogon Limited. GelRed™ Nucleic Acid Gel Stain (10000× in water) was purchased from Biotium. Other chemicals, reagents and solvents were all purchased from Aldrich or Invitrogen. ^1H and ^13C NMR spectra were measured on a Bruker ARX 400 NMR spectrometer using CDCl3 as solvent. High-resolution mass spectra (HRMS) were taken on a Finnigan TSQ 7000 triple quadrupole spectrometer in a MALDI-TOF mode. UV spectra were measured on a Milton Roy Spectronic 3000 Array spectrophotometer. Fluorescence (FL) spectra were recorded on a Perkin-Elmer LS 55 spectrofluorometer. FL quantum yields (ΦF) of amorphous powders of siloles were measured using C-701 Time-Resolved Spectrofluorometer with the integrating sphere as accessory.
Structure of dye is confirmed by standard spectroscopic methods (FIGS. 23, 26a, and 27a). In order to confirm TPEITC is AIE-active, we investigated its fluorescence in THF/water mixtures with different water fractions. […] TPEITC molecules with hydrophobic aromatic cores precipitated and became aggregate in the nonsolvent mixture. Aggregation blocks the nonradiative relaxation channels and populates the radiative decay, thus resulting in high luminescence. […]

[3] = Fluorescence quantum efficiency in the solid state; assay type: physicochemical
Description: as §1

[4] = Quantum efficiency of TPEMBR before and after reaction with dithiothreitol (DTT); assay type: physicochemical; conditions: water/THF solution, water fraction 90 vol %
Procedure: In addition to the enhancement of fluorescence because of its AIE property, TPEMBR becomes even more emissive through the reaction between its bromomethyl group and thiol group of proteins, presumably due to the elimination of the internal heavy atom effect of bromide. […] TPEMBR and DTT in equal amount were dissolved in THF to give a concentration of 10 μM for each component. The mixture was then incubated at room temperature overnight. Photoluminescence intensity and UV absorption of TPEMBR were measured in THF/water mixtures with a water fraction of 90 vol % before and after reacting with DTT. As shown in FIGS. 12a and 12b, the quantum efficiency of TPEMBR in the water/THF solution with a water fraction of 90 vol % was approximately 3 times higher after reacting with DTT.

[5] = biological target: BSA (35 Cys) (Bos taurus, UniProt P02769); assay: Fluorescent labeling of Cys residues of protein with TPEMBR, SDS-PAGE; parameters: species or system bovine
Procedure: (§2) 2.5 μL Tris-HCl (1 M), 2.5 μL TCEP (20 mM), 5 μL BSA (1 mg/mL, 15 μM), and 30 μL urea (8 M in water) was added to a 1.5 mL Eppendorf tube and mixed well. The mixture was incubated at room temperature for 30 min to pre-reduce the disulfide bonds with TCEP. Then, 10 μL of the TPEMBR DMSO stock solution (2.5 mM 5×) was added to the system and made the final volume 50 μL. The reaction mixture was incubated for 3 hours at 50° C. in an Eppendorf Thermomixer. Then, samples were cooled either to room temperature for instant use or frozen for eventual use.
In order to ensure that the Cys residues were sufficiently labeled with TPEMBR, a longer reaction time (usually overnight) at or below room temperature was required. Alternatively, the reaction time could be reduced if labeling was carried out at 50° C. To verify the time-dependence of labeling efficiency, bovine serum albumin (BSA) samples were labeled with TPEMBR for different times ranging from 10 min to 4 h and analyzed by SDS-PAGE. The fluorescence intensity of the labeled BSA increased as the reaction time was extended. The maximum intensity under specific labeling conditions was observed after 3 h and remained unchanged even with an additional 1 h of reaction time (FIGS. 11a and 11b). […] The time-dependent labeling effect provides a way to determine the desirable DOL according to different applications by simply controlling the labeling time. Meanwhile, a lower temperature labeling process with a longer reaction time could be a better choice to obtain fluorescent proteins while maintaining their native structures.
BSA samples were subjected to labeling with different dye concentrations. The SDS-PAGE fluorescence intensity of labeled BSA increased with increasing dye concentration. […] Further increasing the dye concentration could give higher fluorescence intensity due to nonspecific labeling. Clearly, the DOL of protein samples can be controlled by varying the dye concentration.
(§3) Specific labeling of Cys residues by TPEMBR was examined through the labeling of proteins with different Cys contents. BSA (35 Cys), yeast enolase (single Cys) and horse myoglobin (0 Cys) were labeled with 0.5 mM of TPEMBR, respectively. The corresponding fluorescent products were analyzed on gel. […] The results further confirmed the specificity of TPEMBR to Cys residue when the working concentration of 0.5 mM was used.
BSA was labeled by each dye with a series of varying dye/thiol ratios. After the electrophoresis, the gel fluorescent image was taken under UV excitation and the fluorescence intensity was obtained from three independent experiments. Fluorescence intensities normalized with the sample with the lowest dye concentration are plotted versus the dye/thiol ratio (FIG. 16). […] This self-quenching effect is inevitable for self-quenching dyes such as 5-BMF and limits these dyes' application on quantification of proteins. In contrast, detection and quantification of proteins with high contents of Cys can be easily achieved by using AIE active molecules such as TPEMBR.

[6] = biological target: horse myoglobin (0 Cys) (Equus caballus, UniProt P68082); assay: as above; conditions: 0.5 mM dye
Procedure: as §2, §3

Sequence of BSA (35 Cys) (P02769 25-607): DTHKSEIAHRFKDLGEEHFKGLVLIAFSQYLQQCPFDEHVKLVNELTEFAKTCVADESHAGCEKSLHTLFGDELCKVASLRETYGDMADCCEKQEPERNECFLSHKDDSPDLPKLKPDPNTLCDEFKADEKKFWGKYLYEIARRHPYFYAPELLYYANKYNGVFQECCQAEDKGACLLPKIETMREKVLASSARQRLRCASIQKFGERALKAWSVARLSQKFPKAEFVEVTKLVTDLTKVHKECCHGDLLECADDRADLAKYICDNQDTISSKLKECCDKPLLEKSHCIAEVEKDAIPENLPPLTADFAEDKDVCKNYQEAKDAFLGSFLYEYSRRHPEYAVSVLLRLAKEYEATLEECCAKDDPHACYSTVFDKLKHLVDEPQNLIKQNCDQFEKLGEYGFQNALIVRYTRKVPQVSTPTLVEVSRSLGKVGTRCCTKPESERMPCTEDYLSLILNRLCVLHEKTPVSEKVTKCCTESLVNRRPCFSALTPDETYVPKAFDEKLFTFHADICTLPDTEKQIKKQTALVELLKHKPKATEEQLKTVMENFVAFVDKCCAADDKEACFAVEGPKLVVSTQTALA
Sequence of bovine serum albumin (BSA) (P02769 25-607): as above
Sequence of horse myoglobin (0 Cys) (P68082 whole entry): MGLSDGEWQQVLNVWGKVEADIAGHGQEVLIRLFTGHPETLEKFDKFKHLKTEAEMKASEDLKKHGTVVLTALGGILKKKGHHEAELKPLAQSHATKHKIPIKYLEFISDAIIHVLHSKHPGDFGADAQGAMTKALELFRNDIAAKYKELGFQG

Compound	fluorescence intensity of labeled BSA versus dye concentration [1]	PL intensity relative to the mixture with 70% water [2]	quantum efficiency [3]	quantum efficiency after reacting with DTT relative to before [4]	emission of labeled protein on gel ([5]; 0.5 mM dye)	dye concentration at which maximum intensity was reached ([5]; SDS-PAGE fluorescence intensity of labeled BSA)	labeling time to maximum fluorescence intensity ([5]; labeling at 50° C., 10 min to 4 h)	self-quenching effect versus dye/thiol ratio ([5]; series of dye/thiol ratios)	emission of labeled protein on gel [6]
O=S(=O)([O-])CCCOc1ccc(C(=C(c2ccccc2)c2ccc(OCCCS(=O)(=O)[O-])cc2)c2ccccc2)cc1.[Na+].[Na+] (mixture of isomers) [TPE-SO3]	increased continuously								
BrCc1ccc(C(=C(c2ccccc2)c2ccccc2)c2ccccc2)cc1 [TPEMBR]		approximately 50 fold	31.7%	approximately 3 times	much higher emission than yeast enolase	≥ 0.5 mM	3 h	kept on increasing	no fluorescence at all
